Results from US6737383B1, “Herbicidal oxadiazolidines” (priority 1999, dated 2004).

Legend:
velvetleaf = assay: Test A velvetleaf; format: in vivo, Abutilon theophrasti; conditions: 0 to 10 scale where 0 is no effect and 10 is complete control
Summary of the method: (§1)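 Visual injury score, 0 (no effect) to 10 (complete control), vs untreated controls at ~11 d in greenhouse. Pre: soil drench on sandy loam. Post: spray to runoff, 1–2 leaf stage.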

barnyardgrass = assay: Test A barnyardgrass; format: in vivo, Echinochloa crus-galli; conditions: 0 to 10 scale where 0 is no effect and 10 is complete control
Protocol: Seeds of barnyardgrass (Echinochloa crus-galli), crabgrass (Digitaria spp.), morningglory (Ipomoea spp.), and velvetleaf (Abutilon theophrasti) were planted into a sandy loam soil and treated preemergence by soil drench with test chemicals formulated in a non-phytotoxic solvent mixture which includes a surfactant At the same time, these crop and weed species were also treated postemergence sprayed to runoff, with test chemicals formulated in the same manner.
Plants ranged in height from two to eighteen cm and were in the one to two leaf stage for the postemergence treatment. Treated plants and untreated controls were maintained in a greenhouse for approximately eleven days, after which all treated plants were compared to untreated controls and visually evaluated for injury. Plant response ratings, summarized in Table A, are based on a 0 to 10 scale where 0 is no effect and 10 is complete control.

morningglory = assay: Test A morningglory; format: in vivo, Ipomoea spp.; conditions: 0 to 10 scale where 0 is no effect and 10 is complete control
Summary of the method: as §1

itchgrass = assay: Test D itchgrass; format: in vivo, Rottboellia exaltata; conditions: Preemergence, 0 to 100 scale
Summary of the method: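 Scoring used a 0–100 visual injury scale, with 0 meaning no effect and 100 complete control, assessed 14–21 days after application alongside untreated pots. Preemergence treatments went onto sandy loam surfaces of separately potted seeds within a day of sowing.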

common pursiane = assay: Test D common purslane; format: in vivo, Portulaca oleracea
Summary of the method: (§2)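 Visual injury ratings, 0 = no injury to 100 = complete control, taken 14 to 21 days after treatment. Test chemicals were in a surfactant-containing non-phytotoxic solvent; preemergence treatments went onto the sandy loam surface of seeded greenhouse pots within one day of sowing.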

bermuda-grass = assay: Test D bermudagrass; format: in vivo, Cynodon dactylon; conditions: Preemergence, 0 to 100 scale
Summary of the method: as §2

Johnson grass = assay: Test D Johnson grass; format: in vivo, Sorghum halepense; conditions: Preemergence, 0 to 100 scale
Summary of the method: as §2

dallisgrass = assay: Test D dallisgrass; format: in vivo, Paspalum dilatatum; conditions: Preemergence, 0 to 100 scale
Summary of the method: as §2

sandbur = assay: Test D sandbur; format: in vivo, Cenchrus echinatus; conditions: Preemergence, 0 to 100 scale
Summary of the method: as §2

purple nutsedge = assay: Test D purple nutsedge; format: in vivo, Cyperus rotundus; conditions: Preemergence, 0 to 100 scale
Summary of the method: as §2

surinam grass = assay: Test D surinam grass; format: in vivo, Brachiaria decumbens; conditions: Preemergence, 0 to 100 scale
Summary of the method: as §2

pitted morningglory = assay: Test D pitted morningglory; format: in vivo, Ipomoea lacunosa; conditions: Preemergence, 0 to 100 scale
Summary of the method: as §2

guineagrass = assay: Test D guineagrass; format: in vivo, Panicum maximum; conditions: Preemergence, 0 to 100 scale
Summary of the method: as §2

large crabgrass = assay: Test D large crabgrass; format: in vivo, Digitaria sanguinalis; conditions: Preemergence, 0 to 100 scale
Summary of the method: as §2

tall mallow = assay: Test D tall mallow; format: in vivo, Malva sylvestris; conditions: Preemergence, 0 to 100 scale
Summary of the method: as §2

Green foxtail = assay: Test D green foxtail; format: in vivo; conditions: Preemergence, 0 to 100 scale
Summary of the method: as §2

Spanishneedles = assay: Test D Spanishneedles; format: in vivo, Bidens bipinnata; conditions: Preemergence, 0 to 100 scale
Summary of the method: as §2

common ragweed = assay: Test D common ragweed; format: in vivo, Ambrosia elatior; conditions: Preemergence, 0 to 100 scale
Summary of the method: as §2

[1] = Rate 16 g/ha, 0 no injury, 100 complete control
[2] = Rate 32 g/ha, 0 no injury, 100 complete control
[3] = Rate 64 g/ha, 0 no injury, 100 complete control
[4] = Rate 125 g/ha, 0 no injury, 100 complete control
[5] = Rate 64 g/ha, Preemergence; 0 to 100 scale, 0 no injury, 100 complete control
[6] = Rate 125 g/ha, Preemergence; 0 to 100 scale, 0 no injury, 100 complete control
[7] = Rate 500 g/ha, Preemergence; 0 to 100 scale
[8] = Rate 500 g/ha; Preemergence; 0 to 100 scale

CCc1cccc(C)c1-n1c(=O)on(C(=O)N(c2ccc(F)cc2)C(C)C)c1=O [Compound 52]
1: Plant response rating, Velvetleaf (velvetleaf; Postemergence, Rate 1000 g/ha) | Plant response rating, Morningglory (morningglory; Postemergence, Rate 1000 g/ha)
5: Plant response rating, Barnyardgrass (barnyardgrass; Postemergence, Rate 1000 g/ha)
9: Plant response rating, Barnyardgrass (barnyardgrass; Pre-emergence, Rate 2000 g/ha)
0: Plant response rating, Velvetleaf (velvetleaf; Pre-emergence, Rate 2000 g/ha) | Plant response rating, Morningglory (morningglory; Pre-emergence, Rate 2000 g/ha)

CC(C)N(C(=O)n1oc(=O)n(C2CCCCC2)c1=O)c1ccc(F)cc1F [Compound 115]
90: Plant response rating Johnsongrass (Johnson grass; Rate 500 g/ha)
30: Plant response rating, Guineagrass (guineagrass; [2]) | Plant response rating, Guineagrass (guineagrass; [3])
75: Plant response rating, Bermudagrass (bermuda-grass; [1]) | Plant response rating Johnsongrass (Johnson grass; Rate 250 g/ha) | Plant response rating, Dallisgrass (dallisgrass; [2]) | Plant response rating, Dallisgrass (dallisgrass; [3]) | Surinam grass plant response rating (surinam grass; [4]) | Plant response rating, Surinam grass (surinam grass; Rate 250 g/ha) | Plant response rating Large crabgrass (large crabgrass; [1]) | Plant response rating Large crabgrass (large crabgrass; [2])
0: Plant response rating, C. purslane (common pursiane; Rate 16 g/ha; Preemergence; 0 to 100 scale, 0 no injury, 100 complete control) | Plant response rating, C. purslane (common pursiane; Rate 32 g/ha; Preemergence; 0 to 100 scale, 0 no injury, 100 complete control) | Plant response rating, C. purslane (common pursiane; [5]) | Plant response rating, C. purslane (common pursiane; [6]) | Plant response rating, C. purslane (common pursiane; Rate 250 g/ha; Preemergence; 0 to 100 scale) | Plant response rating, C. purslane (common pursiane; [8]) | Plant response rating Johnsongrass (Johnson grass; [1]) | Plant response rating, Dallisgrass (dallisgrass; [1]) | Plant response rating, Sandbur (sandbur; [1]) | Plant response rating, Sandbur (sandbur; [2]) | Sandbur plant response rating (sandbur; [3]) | Plant response rating, Purple nutsedge (purple nutsedge; [1]) | Plant response rating, Purple nutsedge (purple nutsedge; [2]) | Purple nutsedge plant response rating (purple nutsedge; [3]) | Purple nutsedge plant response rating (purple nutsedge; [4]) | Plant response rating, Purple nutsedge (purple nutsedge; Rate 250 g/ha) | Plant response rating, Purple nutsedge (purple nutsedge; Rate 500 g/ha) | Plant response rating, Surinam grass (surinam grass; [1]) | Plant response rating, P. morninglory (pitted morningglory; [1]) | Plant response rating, P. morninglory (pitted morningglory; [2]) | Plant response rating, P. morninglory (pitted morningglory; [3]) | Plant response rating, P. morninglory (pitted morningglory; [4]) | Plant response rating, P. morninglory (pitted morningglory; Rate 250 g/ha) | Plant response rating, Guineagrass (guineagrass; [1]) | Plant response rating, Tall Mallow (tall mallow; [1]) | Plant response rating, Tall Mallow (tall mallow; [2]) | Tall Mallow plant response rating (tall mallow; [3]) | Tall Mallow plant response rating (tall mallow; [4]) | Plant response rating, Tall Mallow (tall mallow; Rate 250 g/ha) | Plant response rating, Tall Mallow (tall mallow; Rate 500 g/ha) | Plant response rating, Spanishneedles (Spanishneedles; [1]) | Plant response rating, Spanishneedles (Spanishneedles; [2]) | Spanishneedles plant response rating (Spanishneedles; [3]) | Spanishneedles plant response rating (Spanishneedles; [4]) | Plant response rating, C. ragweed (common ragweed; [1]) | Plant response rating, C. ragweed (common ragweed; [2]) | Plant response rating, C. ragweed (common ragweed; [3])
50: Plant response rating, Itchgrass (itchgrass; [4]) | Plant response rating, Itchgrass (itchgrass; Rate 250 g/ha) | Plant response rating, Itchgrass (itchgrass; Rate 500 g/ha) | Plant response rating, Sandbur (sandbur; Rate 250 g/ha)
65: Surinam grass plant response rating (surinam grass; [3])
10: Plant response rating, P. morninglory (pitted morningglory; Rate 500 g/ha) | Plant response rating, Spanishneedles (Spanishneedles; Rate 500 g/ha) | Plant response rating, C. ragweed (common ragweed; [4])
40: Plant response rating, Itchgrass (itchgrass; [1]) | Plant response rating, Itchgrass (itchgrass; [2]) | Plant response rating, Itchgrass (itchgrass; [3]) | Plant response rating Johnsongrass (Johnson grass; [2]) | Plant response rating Johnsongrass (Johnson grass; [3]) | Sandbur plant response rating (sandbur; [4])
100: Plant response rating, Bermudagrass (bermuda-grass; [4]) | Plant response rating, Bermudagrass (bermuda-grass; Rate 250 g/ha) | Plant response rating, Bermudagrass (bermuda-grass; Rate 500 g/ha) | Plant response rating, Dallisgrass (dallisgrass; Rate 500 g/ha) | Plant response rating, Sandbur (sandbur; Rate 500 g/ha) | Plant response rating, Guineagrass (guineagrass; Rate 500 g/ha) | Plant response rating Large crabgrass (large crabgrass; [4]) | Plant response rating Large crabgrass (large crabgrass; Rate 250 g/ha) | Plant response rating Large crabgrass (large crabgrass; Rate 500 g/ha) | Plant response rating, Green foxtail (Green foxtail; Rate 250 g/ha) | Plant response rating, Green foxtail (Green foxtail; Rate 500 g/ha)
85: Plant response rating, Surinam grass (surinam grass; Rate 500 g/ha) | Plant response rating, Guineagrass (guineagrass; [4]) | Plant response rating Large crabgrass (large crabgrass; [3])
98: Plant response rating, Bermudagrass (bermuda-grass; [2]) | Plant response rating, Bermudagrass (bermuda-grass; [3]) | Plant response rating, Dallisgrass (dallisgrass; [4]) | Plant response rating, Dallisgrass (dallisgrass; Rate 250 g/ha) | Plant response rating, Guineagrass (guineagrass; Rate 250 g/ha)
60: Plant response rating Johnsongrass (Johnson grass; [4])
20: Plant response rating, C. purslane (common pursiane; [7]) | Plant response rating, Surinam grass (surinam grass; [2]) | Plant response rating, C. ragweed (common ragweed; Rate 250 g/ha) | Plant response rating, C. ragweed (common ragweed; Rate 500 g/ha)

CCn1c(=O)on(C(=O)N(c2ccccc2)C(C)C)c1=O [Compound 117]
90: Plant response rating Johnsongrass (Johnson grass; [3]) | Plant response rating Johnsongrass (Johnson grass; [4])
85: Plant response rating, Dallisgrass (dallisgrass; [3])
100: Plant response rating, Itchgrass (itchgrass; Rate 500 g/ha) | Plant response rating, Bermudagrass (bermuda-grass; [4]) | Plant response rating, Bermudagrass (bermuda-grass; Rate 500 g/ha) | Plant response rating Johnsongrass (Johnson grass; Rate 500 g/ha) | Plant response rating, Dallisgrass (dallisgrass; Rate 500 g/ha) | Plant response rating, Sandbur (sandbur; Rate 500 g/ha) | Plant response rating, Purple nutsedge (purple nutsedge; Rate 500 g/ha) | Surinam grass plant response rating (surinam grass; [4]) | Plant response rating, Surinam grass (surinam grass; Rate 500 g/ha) | Plant response rating, Guineagrass (guineagrass; [3]) | Plant response rating, Guineagrass (guineagrass; [4]) | Plant response rating, Guineagrass (guineagrass; Rate 500 g/ha) | Plant response rating Large crabgrass (large crabgrass; Rate 500 g/ha) | Plant response rating, Tall Mallow (tall mallow; Rate 500 g/ha) | Plant response rating, Green foxtail (Green foxtail; Rate 500 g/ha)
80: Surinam grass plant response rating (surinam grass; [3])
20: Plant response rating, P. morninglory (pitted morningglory; [4])
0: Plant response rating, C. purslane (common pursiane; [5]) | Plant response rating, C. purslane (common pursiane; [6]) | Plant response rating, C. purslane (common pursiane; [8]) | Sandbur plant response rating (sandbur; [3]) | Sandbur plant response rating (sandbur; [4]) | Purple nutsedge plant response rating (purple nutsedge; [3]) | Purple nutsedge plant response rating (purple nutsedge; [4]) | Plant response rating, P. morninglory (pitted morningglory; [3]) | Spanishneedles plant response rating (Spanishneedles; [3]) | Spanishneedles plant response rating (Spanishneedles; [4]) | Plant response rating, Spanishneedles (Spanishneedles; Rate 500 g/ha) | Plant response rating, C. ragweed (common ragweed; [3]) | Plant response rating, C. ragweed (common ragweed; [4])
95: Plant response rating, Dallisgrass (dallisgrass; [4])
65: Plant response rating, C. purslane (common pursiane; [7]) | Tall Mallow plant response rating (tall mallow; [4]) | Plant response rating, C. ragweed (common ragweed; Rate 500 g/ha)
75: Plant response rating, Itchgrass (itchgrass; [4])
40: Plant response rating, Itchgrass (itchgrass; [3]) | Plant response rating, P. morninglory (pitted morningglory; Rate 500 g/ha) | Tall Mallow plant response rating (tall mallow; [3])
98: Plant response rating, Bermudagrass (bermuda-grass; [3]) | Plant response rating Large crabgrass (large crabgrass; [3]) | Plant response rating Large crabgrass (large crabgrass; [4])
